# Reference: PubChem BioAssay AID256 (DTP/NCI, 2004)
# Values joined by “and” are separate entries in the source; they are usually repeats but may differ in a detail not shown here. Equal values may be shown once. Toxic doses and inconclusive results are not listed.
# System: CD2F1 mice, L1210 leukemia ip, survival T/C
# Test: NCI In Vivo Anticancer Drug Screen. Data for tumor model L1210 Leukemia (intraperitoneal) in CD2F1 (CDF1) mice
# Conditions: endpoint: mean survival time, higher = longer survival
# Method in brief: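 Activity against a transplanted murine tumor was judged by comparing the compound group with a vehicle group. The outcome in the treated animals was divided by that in the controls.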
# [1] = dose: 100.0 mg/kg/injection, schedule: Q01DX001 (ip), vehicle: saline
# [2] = dose: 100.0 mg/kg/injection, schedule: Q04DX003 (ip), vehicle: saline
# [3] = dose: 200.0 mg/kg/injection, schedule: Q01DX001 (ip), vehicle: saline
# [4] = dose: 200.0 mg/kg/injection, schedule: Q04DX003 (ip), vehicle: saline
# [5] = dose: 400.0 mg/kg/injection, schedule: Q01DX001 (ip), vehicle: saline
# [6] = dose: 400.0 mg/kg/injection, schedule: Q04DX003 (ip), vehicle: saline
# [7] = dose: 100.0 mg/kg/injection, schedule: Q01DX009 (ip), vehicle: saline with Tween-80
smiles,measurement,setting,value
COc1ccc2c(c1)CCC1C2CCC2(C)C(=O)NC(=O)N12 (centres undefined),T/C,"dose: 25.0 mg/kg/injection, schedule: Q04DX002 (ip), vehicle: saline with Tween-80",93 % of control
same,T/C,"dose: 50.0 mg/kg/injection, schedule: Q04DX002 (ip), vehicle: saline with Tween-80",86 % of control
same,T/C,"dose: 100.0 mg/kg/injection, schedule: Q01DX001 (ip), vehicle: saline with Tween-80",86 % of control
same,T/C,"dose: 100.0 mg/kg/injection, schedule: Q04DX002 (ip), vehicle: saline with Tween-80",86 % of control and 90 % of control
same,T/C,"dose: 400.0 mg/kg/injection, schedule: Q01DX001 (ip), vehicle: saline with Tween-80",93 % of control
same,T/C,"dose: 400.0 mg/kg/injection, schedule: Q04DX002 (ip), vehicle: saline with Tween-80",86 % of control
c1ccc(-c2ncnc3c2Cc2ccccc2-3)cc1,T/C,"dose: 100.0 mg/kg/injection, schedule: Q01DX009 (ip), vehicle: saline sonified",94 % of control
same,T/C,"dose: 200.0 mg/kg/injection, schedule: Q01DX009 (ip), vehicle: saline sonified",100 % of control
same,T/C,"dose: 400.0 mg/kg/injection, schedule: Q01DX009 (ip), vehicle: saline sonified",98 % of control
Cc1c(C(=O)O)nc(/C=C/C(Cl)(Cl)Cl)[nH]c1=O,T/C,"dose: 25.0 mg/kg/injection, schedule: Q01DX005 (ip), vehicle: other",104 % of control
same,T/C,"dose: 50.0 mg/kg/injection, schedule: Q01DX005 (ip), vehicle: other",103 % of control
same,T/C,"dose: 100.0 mg/kg/injection, schedule: Q01DX005 (ip), vehicle: other",97 % of control
same,T/C,"dose: 200.0 mg/kg/injection, schedule: Q01DX005 (ip), vehicle: other",106 % of control
same,T/C,"dose: 400.0 mg/kg/injection, schedule: Q01DX005 (ip), vehicle: other",95 % of control
O=C(O)c1cccc(-c2ccccc2)c1,T/C,"dose: 100.0 mg/kg/injection, schedule: Q01DX009 (ip), vehicle: saline",104 % of control
same,T/C,"dose: 200.0 mg/kg/injection, schedule: Q01DX009 (ip), vehicle: saline",154 % of control
same,T/C,"dose: 400.0 mg/kg/injection, schedule: Q01DX009 (ip), vehicle: saline",93 % of control
CC(C)(C)OC(=O)NC(CSCc1ccccc1)C(=O)Oc1ccc([N+](=O)[O-])cc1 (centres undefined),T/C,"dose: 100.0 mg/kg/injection, schedule: Q04DX003 (ip), vehicle: saline with Tween-80",95 % of control
same,T/C,"dose: 200.0 mg/kg/injection, schedule: Q04DX003 (ip), vehicle: saline with Tween-80",90 % of control
same,T/C,"dose: 400.0 mg/kg/injection, schedule: Q04DX003 (ip), vehicle: saline with Tween-80",86 % of control
Cc1cccc(C)c1N=C(NO)c1ccccc1,T/C,[1],102 % of control
same,T/C,[2],106 % of control
same,T/C,[3],100 % of control
same,T/C,[4],112 % of control
same,T/C,[5],90 % of control
same,T/C,[6],100 % of control
O=C(Nc1ccc(Cl)c(C(F)(F)F)c1)Nc1cc(C(F)(F)F)ccc1Sc1cc(Cl)c(Cl)cc1S(=O)(=O)O,T/C,[7],101 % of control
CCOC(=O)c1c(C)cc(C)[nH]c1=O,T/C,"dose: 100.0 mg/kg/injection, schedule: Q04DX003 (ip), vehicle: saline + alcohol",102 % of control
same,T/C,"dose: 200.0 mg/kg/injection, schedule: Q04DX003 (ip), vehicle: saline + alcohol",107 % of control
same,T/C,"dose: 400.0 mg/kg/injection, schedule: Q04DX003 (ip), vehicle: saline + alcohol",113 % of control
O=C(NCCc1c[nH]c2ccccc12)c1cccnc1,T/C,"dose: 100.0 mg/kg/injection, schedule: Q04DX003 (ip), vehicle: acetone",98 % of control
same,T/C,"dose: 200.0 mg/kg/injection, schedule: Q04DX003 (ip), vehicle: acetone",96 % of control
same,T/C,"dose: 400.0 mg/kg/injection, schedule: Q04DX003 (ip), vehicle: acetone",98 % of control
CC[C+](C)[B-][N+](C)(C)C,T/C,[1],93 % of control
same,T/C,[3],98 % of control
same,T/C,[5],100 % of control
Oc1ccccc1N=Cc1ccccc1,T/C,[2],102 % of control
same,T/C,[4],100 % of control
same,T/C,[6],101 % of control
COc1c(O)ccc2c1CCCCC2=O,T/C,"dose: 50.0 mg/kg/injection, schedule: Q01DX009 (ip), vehicle: saline with Tween-80",100 % of control
same,T/C,[7],100 % of control
same,T/C,"dose: 200.0 mg/kg/injection, schedule: Q01DX009 (ip), vehicle: saline with Tween-80",100 % of control
Cc1ccc(C(C)(C)C[P+](C)(c2ccccc2)c2ccccc2)cc1,T/C,"dose: 50.0 mg/kg/injection, schedule: Q01DX009 (ip), vehicle: Klucel (hydroxypropylcellulose) (HPC)",100 % of control
same,T/C,"dose: 100.0 mg/kg/injection, schedule: Q01DX009 (ip), vehicle: Klucel (hydroxypropylcellulose) (HPC)",102 % of control
